Experimental data: patent US7935722B2 (Eli Lilly and Company, priority 2005, dated 2011)
Read-outs that look alike come from different tables or passages of the source.

Key:
[1] = target: T1, human androgen receptor (AR) (Homo sapiens, UniProt P10275); experiment: C2C12 AR/ARE reporter assay; assay type: cell-based
T1 construct: expressed in transfected cells; host or cells: mouse myoblast C2C12 cells, transiently co-transfected
T1 sequence (P10275 1-920): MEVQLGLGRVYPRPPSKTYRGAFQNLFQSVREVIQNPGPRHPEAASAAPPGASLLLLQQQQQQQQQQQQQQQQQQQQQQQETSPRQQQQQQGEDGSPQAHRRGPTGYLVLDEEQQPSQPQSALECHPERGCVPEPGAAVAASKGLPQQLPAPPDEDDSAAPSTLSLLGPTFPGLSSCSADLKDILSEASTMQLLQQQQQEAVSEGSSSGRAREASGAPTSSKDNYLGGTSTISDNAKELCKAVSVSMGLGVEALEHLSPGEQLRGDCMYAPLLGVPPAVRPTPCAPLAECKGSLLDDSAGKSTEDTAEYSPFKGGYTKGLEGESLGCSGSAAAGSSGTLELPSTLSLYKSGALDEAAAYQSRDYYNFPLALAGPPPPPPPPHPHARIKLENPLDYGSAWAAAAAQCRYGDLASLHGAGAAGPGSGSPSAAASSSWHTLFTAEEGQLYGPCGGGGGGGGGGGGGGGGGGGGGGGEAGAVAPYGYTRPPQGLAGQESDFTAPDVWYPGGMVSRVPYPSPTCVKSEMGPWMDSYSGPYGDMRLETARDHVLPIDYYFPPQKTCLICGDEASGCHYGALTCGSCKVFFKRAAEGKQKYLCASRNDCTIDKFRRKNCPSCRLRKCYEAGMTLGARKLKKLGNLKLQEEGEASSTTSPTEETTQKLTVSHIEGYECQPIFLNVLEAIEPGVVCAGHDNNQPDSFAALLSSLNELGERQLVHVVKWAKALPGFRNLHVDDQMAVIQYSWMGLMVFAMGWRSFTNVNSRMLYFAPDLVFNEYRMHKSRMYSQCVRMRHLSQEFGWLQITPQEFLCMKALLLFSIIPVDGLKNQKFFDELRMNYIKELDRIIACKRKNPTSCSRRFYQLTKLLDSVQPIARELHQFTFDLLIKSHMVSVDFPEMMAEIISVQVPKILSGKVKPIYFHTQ
How it was run: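 Mouse C2C12 myoblasts co-transfected with AR/ARE reporter were plated in charcoal-stripped serum and treated for 48 h with compound from about 0.01 nM to 10 μM. Luciferase activity gave EC50 by 4-parameter logistic fit. Efficacy is expressed as % of maximal stimulation by 10 nM methyltrienolone.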

[2] = target: T2, human AR (androgen receptor) (Homo sapiens, UniProt P10275); experiment: Steroid hormone nuclear receptor binding assay, AR binding
T2 construct: expressed in transfected cells; host or cells: 293 cells (293-AR lysate)
T2 sequence (P10275 1-920): T1 sequence (P10275 1-920)
How it was run: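 Competition binding with lysates of 293 cells overexpressing human AR, [3H]-methyltrienolone tracer, compounds from about 0.01 nM to 10 μM, overnight at 4 °C; non-specific binding set with 500 nM methyltrienolone. Bound tracer counted by scintillation after charcoal-dextran separation; IC50 converted to Ki by Cheng-Prusoff using Kd from saturation binding.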

[3] = C2C12, read-out: C2C12 % Efficacy
[4] = average of n trials, read-out: AR binding Ki
[5] = C2C12 AR/ARE reporter assay, average of n trials, read-out: C2C12 % Efficacy
[6] = C2C12 AR/ARE reporter assay, average of n trials, read-out: C2C12 EC50

## CC(C)C(=O)NC1CCc2c(c3cc(C#N)ccc3n2Cc2cccc(F)c2)C1 (stereo not drawn) [Example 51, N-(6-cyano-9-(3-fluorobenzyl)-2,3,4,9-tetrahydro-1H-carbazol-3-yl)isobutyramide]
[1]; [3]
  Emax: 87.5%
other
  melting point: 195 to 199 °C

## CC(C)C(=O)NC1CCc2c(c3cc(F)ccc3n2Cc2ccccc2F)C1 (stereo not drawn) [Example 4]
[1]; [3]
  Emax: 36.1%
other
  melting point: 156 to 158 °C

## CC(C)C(=O)N[C@@H]1CCc2c(c3cc(Br)ccc3n2Cc2cccc(F)c2)C1 [Example 122]
other
  melting point: 204 to 207 °C

## CC(C)C(=O)NC1CCc2c(c3cc(Br)ccc3n2Cc2ccccc2Cl)C1 (stereo not drawn) [Example 32]
[1]; [3]
  Emax: 94.3%
other
  melting point: 196 to 198 °C

## CC(C)C(=O)NC1CCc2c(c3cccc(F)c3n2Cc2cccc(F)c2)C1 (stereo not drawn) [Example 58]
[1]; [3]
  Emax: 62.1%
other
  melting point: 185 to 188 °C

## CC(C)C(=O)N[C@H]1CCc2c(c3cc(C#N)ccc3n2Cc2ccccc2N)C1 (single isomer, unassigned) [Example 111, S-N-[9-(2-Amino-benzyl)-6-cyano-2,3,4,9-tetrahydro-1H-carbazol-3-yl]-isobutyramide]
[2]
  Ki: 0.127 µM
[1]
  EC50: 0.0552 µM
[1]; [3]
  Emax: 111%

## CC(C)C(=O)NC1CCc2c(c3c(F)c(C#N)ccc3n2Cc2cccc(F)c2)C1 (stereo not drawn) [Example 116, N-[6-Cyano-5-fluoro-9-(3-fluoro-benzyl)-2,3,4,9-tetrahydro-1H-carbazol-3-yl]-isobutyramide]
[2]
  Ki: 0.0034 µM
[1]
  EC50: 0.0027 µM
[1]; [3]
  Emax: 78.3%

## CC(C)C(=O)NC1CCc2c(c3cc(C#N)ccc3n2Cc2cc(F)cc(F)c2)C1 (stereo not drawn) [Example 89]
[2]
  Ki: 0.0033 µM
[1]
  EC50: 0.0019 µM
[1]; [3]
  Emax: 78.5%

## CC(C)C(=O)NC1CCc2c(c3cc(Cl)ccc3n2Cc2ccccc2[N+](=O)[O-])C1 (stereo not drawn) [Example 104, N-[6-Chloro-9-(2-nitro-benzyl)-2,3,4,9-tetrahydro-1H-carbazol-3-yl]-isobutyramide]
[2]; [4]
  Ki: 0.0225 µM
[1]; [5]
  Emax: 71.6%
[1]; [6]
  EC50: 0.555 µM

## CC(C)C(=O)NC1CCc2c(c3cc(Br)cc(F)c3n2Cc2cccc(F)c2)C1 (stereo not drawn) [Example 120, N-[6-Bromo-8-fluoro-9-(3-fluoro-benzyl)-2,3,4,9-tetrahydro-1H-carbazol-3-yl]-isobutyramide]
[2]
  Ki: 0.007 µM
[1]
  EC50: 0.0514 µM
[1]; [3]
  Emax: 101%

## CC(C)C(=O)NC1CCc2c(c3cc(C#N)ccc3n2Cc2ccccc2)C1 (stereo not drawn) [Example 85]
[2]
  Ki: 0.0046 µM
[1]
  EC50: 0.0038 µM
[1]; [3]
  Emax: 79.8%

## O=C(N[C@@H]1CCc2c(c3cc(/C=N/O)ccc3n2Cc2cccc(F)c2)C1)C1CC1 [Example 203, (R)-Cyclopropanecarboxylic acid[9-(3-fluoro-benzyl)-6-(hydroxyimino-methyl)-2,3,4,9-tetrahydro-1H-carbazol-3-yl]-amide]
[2]; [4]
  Ki: 0.0123 µM
[1]; [5]
  Emax: 73.1%
[1]; [6]
  EC50: 0.0202 µM

## CC(C)C(=O)NC1CCc2c(c3cc(O)ccc3n2Cc2cccc(F)c2)C1 (stereo not drawn) [Example 91, N-[9-(3-Fluoro-benzyl)-6-hydroxy-2,3,4,9-tetrahydro-1H-carbazol-3-yl]-isobutyramide]
[2]
  Ki: 0.0118 µM
[1]
  EC50: 0.0971 µM
[1]; [3]
  Emax: 86.9%

## O=C(NC1CCc2c(c3cc(OC(F)(F)F)ccc3n2Cc2cccc(F)n2)C1)C1CC1 (stereo not drawn) [Example 163]
[2]; [4]
  Ki: 0.0127 µM
[1]; [5]
  Emax: 75.2%
[1]; [6]
  EC50: 0.0373 µM

## CCOc1ccc2c(c1)c1c(n2Cc2cccc(F)c2)CCC(NC(=O)C(C)C)C1 (stereo not drawn) [Example 93, N-[6-Ethoxy-9-(3-fluoro-benzyl)-2,3,4,9-tetrahydro-1H-carbazol-3-yl]-isobutyramide]
[2]
  Ki: 0.0068 µM
[1]
  EC50: 0.005 µM
[1]; [3]
  Emax: 82.4%

## CC(C)C(=O)NC1CCc2c(c3cc(N(C)C)ccc3n2Cc2cccc(F)c2)C1 (stereo not drawn) [Example 62, N-[6-Dimethylamino-9-(3-fluoro-benzyl)-2,3,4,9-tetrahydro-1H-carbazol-3-yl]-isobutyramide]
[2]
  Ki: 0.11 µM
[1]
  EC50: 0.369 µM
[1]; [3]
  Emax: 56.1%

## COc1cccc(Cn2c3c(c4cc(OC)ccc42)CC(NC(=O)C(C)C)CC3)c1 (stereo not drawn) [Example 73]
[2]
  Ki: 0.0521 µM
[1]
  EC50: 0.227 µM
[1]; [3]
  Emax: 54.7%

## CC(C)C(=O)NC1CCc2c(c3cc(C#N)ccc3n2Cc2ccccc2O)C1 (stereo not drawn) [Example 107, N-[6-Cyano-9-(2-hydroxy-benzyl)-2,3,4,9-tetrahydro-1H-carbazol-3-yl]-isobutyrarmide]
[2]
  Ki: 0.0031 µM
[1]
  EC50: 0.0005 µM
[1]; [3]
  Emax: 86.2%

## COC(=O)NC1CCc2c(c3cc(C#N)ccc3n2Cc2cccc(F)c2)C1 (stereo not drawn) [Example 184, [6-Cyano-9-(3-fluoro-benzyl)-2,3,4,9-tetrahydro-1H-carbazol-3-yl]-carbamic acid methyl ester]
[2]
  Ki: 0.0028 µM
[1]
  EC50: 0.0273 µM
[1]; [3]
  Emax: 78.9%

## CN(C)C(=O)NC1CCc2c(c3cc(Br)ccc3n2Cc2cccc(F)c2)C1 (stereo not drawn) [Example 176, 3-[6-Bromo-9-(3-fluoro-benzyl)-2,3,4,9-tetrahydro-1H-carbazol-3-yl]-1,1-dimethyl-urea]
[2]
  Ki: 0.0078 µM
[1]
  EC50: 0.046 µM
[1]; [3]
  Emax: 61.5%

## CC(C)C(=O)N[C@@H]1CCc2c(c3cc(-c4cnc(N)s4)ccc3n2Cc2cccc(F)c2)C1 [Example 141]
[2]
  Ki: 0.01 µM
[1]
  EC50: 0.041 µM
[1]; [3]
  Emax: 102%

## CC[C@@H](C)C(=O)NC1CCc2c(c3cc(Br)ccc3n2Cc2cccc(F)c2)C1 (stereo partly drawn) [Example 171]
[2]; [4]
  Ki: 0.0082 µM
[1]; [5]
  Emax: 63.5%
[1]; [6]
  EC50: 0.411 µM

## CC(C)C(=O)NC1CCc2c(c3cc(C(N)=S)ccc3n2Cc2cccc(F)c2)C1 (stereo not drawn) [Example 64, N-(9-(3-Fluorobenzyl)-6-thiocarbamoyl-2,3,4,9-tetrahydro-1H-carbazol-3-yl)isobutyramide]
[2]; [4]
  Ki: 0.0145 µM
[1]; [5]
  Emax: 89.3%
[1]; [6]
  EC50: 0.0093 µM

## CN(C)C(=O)NC1CCc2c(c3cc(OC(F)(F)F)ccc3n2Cc2cccc(F)n2)C1 (stereo not drawn) [Example 165]
[2]
  Ki: 0.0142 µM
[1]
  EC50: 0.0153 µM
[1]; [3]
  Emax: 74.6%

## N#Cc1ccc2c(c1)c1c(n2Cc2cccc(F)c2)CC[C@@H](NC(=O)C2CC2)C1 [Example 194, (R)-Cyclopropanecarboxylic acid[6-cyano-9-(3-fluorobenzyl)-2,3,4,9-tetrahydro-1H-carbazol-3-yl]amide]
[2]
  Ki: 0.0013 µM
[1]
  EC50: 0.002 µM
[1]; [3]
  Emax: 95.5%

## Cc1nc(-c2ccc3c(c2)c2c(n3Cc3cccc(F)c3)CC[C@@H](NC(=O)C(C)C)C2)sc1C [Example 129]
[2]
  Ki: 0.196 µM
[1]
  EC50: 0.0736 µM
[1]; [3]
  Emax: 65.5%

## CC(C)C(=O)NC1CCc2c(c3cc(-c4cnc(N)s4)ccc3n2Cc2cccc(F)c2)C1 (stereo not drawn) [Example 140]
[2]
  Ki: 0.029 µM
[1]
  EC50: 0.044 µM
[1]; [3]
  Emax: 74.6%

## CC(C)C(=O)N[C@@H]1CCc2c(c3cc(-c4cccnc4)ccc3n2Cc2cccc(F)c2)C1 [Example 133]
[2]
  Ki: 0.0046 µM
[1]
  EC50: 0.0075 µM
[1]; [3]
  Emax: 66.4%

## CC(C)C(=O)N[C@@H]1CCc2c(c3cc(C=O)ccc3n2Cc2cccc(F)c2)C1 [Example 200, (R)-N-[9-(3-Fluorobenzyl)-6-formyl-2,3,4,9-tetrahydro-1H-carbazol-3-yl]-isobutyramide]
[2]
  Ki: 0.0028 µM
[1]
  EC50: 0.0081 µM
[1]; [3]
  Emax: 112%

## CO/N=C/c1ccc2c(c1)c1c(n2Cc2cccc(F)c2)CCC(NC(=O)C2CC2)C1 (stereo not drawn) [Example 202, Cyclopropanecarboxylic acid[9-(3-fluorobenzyl)-6-(methoxyimino-methyl)-2,3,4,9-tetrahydro-1H-carbazol-3-yl]-amide]
[2]
  Ki: 0.0047 µM
[1]
  EC50: 0.0015 µM
[1]; [3]
  Emax: 90.5%

## CC(C)C(=O)NC1CCc2c(c3cc(C#N)ccc3n2Cc2cscn2)C1 (stereo not drawn) [Example 147, N-(6-Cyano-9-thiazol-4-ylmethyl-2,3,4,9-tetrahydro-1H-carbazol-3-yl)-isobutyramide]
[2]
  Ki: 0.0292 µM
[1]
  EC50: 0.0797 µM
[1]; [3]
  Emax: 102%

## CO/N=C/c1ccc2c(c1)c1c(n2Cc2cccc(F)c2)CC[C@@H](NC(=O)C(C)C)C1 [Example 201, (R)-N-[9-(3-Fluorobenzyl)-6-(methoxyimino-methyl)-2,3,4,9-tetrahydro-1H-carbazol-3-yl]-isobutyramide]
[2]; [4]
  Ki: 0.0029 µM
[1]; [5]
  Emax: 79.9%
[1]; [6]
  EC50: 0.005 µM
